Source: ChEMBL document CHEMBL5126669, “Discovery of 5,7-Dihydro-6H-pyrrolo[2,3-d]pyrimidin-6-ones as Highly Selective CDK2 Inhibitors” (ACS Med Chem Lett, 2022)
Each block holds one molecule with its values, some of them ahead of it.

What was measured:
[1] = target: T1, Cyclin-dependent kinase 2 (Homo sapiens, UniProt P24941); assay: Inhibition of CDK2 in human COV318 cells incubated for overnight in presence of human whole blood by HTRF assay; format: cell-based
Homo sapiens [2] = species: Homo sapiens; assay: Selectivity ratio of IC50 for inhibition of CDK4/cyclin D1 (unknown origin) to IC50 for inhibition recombinant human N-terminal GST-tagged full-length CDK2/Flag-tagged cyclinE1 expressed in baculovirus expression system
Homo sapiens [3] = species: Homo sapiens; assay: Selectivity ratio of IC50 for inhibition of CDK6/cyclin D1 (unknown origin) to IC50 for inhibition recombinant human N-terminal GST-tagged full-length CDK2/Flag-tagged cyclinE1 expressed in baculovirus expression system
[4] = target: Cyclin-dependent kinase 2/cyclin E1 (Homo sapiens, UniProt P24941); assay: Inhibition of recombinant human N-terminal GST-tagged full-length CDK2/Flag-tagged cyclinE1 expressed in baculovirus expression system using eIF4E-binding protein-1 peptide as substrate incubated for 1 hr in presence of ATP by HTRF assay
Homo sapiens [5] = species: Homo sapiens; assay: Selectivity ratio of IC50 for inhibition of CDK1 in human OVCAR3 cells to IC50 for inhibition of CDK2 in human COV318 cells; format: cell-based
Homo sapiens [6] = species: Homo sapiens; assay: Selectivity ratio of IC50 for inhibition of CDK1/cyclin B (unknown origin) to IC50 for inhibition recombinant human N-terminal GST-tagged full-length CDK2/Flag-tagged cyclinE1 expressed in baculovirus expression system
[7] = target: Cyclin-dependent kinase 1 (Homo sapiens, UniProt P06493); assay: Inhibition of CDK1 in human OVCAR3 cells incubated for 30 mins in presence of pNPM T199 by western blot analysis; format: cell-based, OVCAR-3
[8] = target: T1, Cyclin-dependent kinase 2; assay: Inhibition of CDK2 in human COV318 cells incubated for overnight in presence of phospho-Rb by HTRF assay; format: cell-based
[9] = Intrinsic clearance in human liver microsomes at 1 uM measured upto 30 mins by LC/MS analysis; format: ADME, Microsome; conditions: read-out: CLH (converted)
[10] = Metabolic stability in Cynomolgus monkey liver microsomes assessed as compound oxidation at 5 uM measured upto 30 mins by HPLC/MS analysis; format: ADME, Macaca fascicularis, Microsome; conditions: 0.5 h
[11] = Metabolic stability in Cynomolgus monkey liver microsomes assessed as remaining parent compound at 5 uM measured upto 30 mins by HPLC/MS analysis; format: ADME, Macaca fascicularis, Microsome; conditions: 0.5 h
Homo sapiens [12] = species: Homo sapiens; assay: Selectivity ratio of IC50 for inhibition of CDK9 (unknown origin) to IC50 for inhibition recombinant human N-terminal GST-tagged full-length CDK2/Flag-tagged cyclinE1 expressed in baculovirus expression system; conditions: tested as the 2H-labelled form
[13] = Metabolic stability in Sprague-Dawley rat liver microsomes assessed as remaining parent compound at 5 uM measured upto 30 mins by HPLC/MS analysis; format: ADME, Microsome; conditions: 0.5 h
Homo sapiens [14] = species: Homo sapiens; assay: Selectivity ratio of IC50 for inhibition of CDK1 (unknown origin) to IC50 for inhibition recombinant human N-terminal GST-tagged full-length CDK2/Flag-tagged cyclinE1 expressed in baculovirus expression system; conditions: tested as the 2H-labelled form
[15] = Metabolic stability in human liver microsomes assessed as compound demethylation at 5 uM measured upto 30 mins by HPLC/MS analysis; format: ADME, Microsome; conditions: 0.5 h
[16] = Metabolic stability in human liver microsomes assessed as remaining parent compound at 5 uM measured upto 30 mins by HPLC/MS analysis; format: ADME, Microsome; conditions: microsomes, 0.5 h, 5 µM
[17] = Metabolic stability in Cynomolgus monkey liver microsomes assessed as compound demethylation at 5 uM measured upto 30 mins by HPLC/MS analysis; format: ADME, Macaca fascicularis, Microsome; conditions: 0.5 h
Homo sapiens [18] = species: Homo sapiens; assay: Selectivity ratio of IC50 for inhibition of CDK4 (unknown origin) to IC50 for inhibition recombinant human N-terminal GST-tagged full-length CDK2/Flag-tagged cyclinE1 expressed in baculovirus expression system; conditions: tested as the 2H-labelled form
[19] = Metabolic stability in Sprague-Dawley rat liver microsomes assessed as compound oxidation at 5 uM measured upto 30 mins by HPLC/MS analysis; format: ADME, Microsome; conditions: 0.5 h
[20] = Metabolic stability in human liver microsomes assessed as compound oxidation at 5 uM measured upto 30 mins by HPLC/MS analysis; format: ADME, Microsome; conditions: microsomes, 0.5 h, 5 µM
Homo sapiens [21] = species: Homo sapiens; assay: Selectivity ratio of IC50 for inhibition of CDK6 (unknown origin) to IC50 for inhibition recombinant human N-terminal GST-tagged full-length CDK2/Flag-tagged cyclinE1 expressed in baculovirus expression system; conditions: tested as the 2H-labelled form
[22] = Metabolic stability in Sprague-Dawley rat liver microsomes assessed as compound demethylation at 5 uM measured upto 30 mins by HPLC/MS analysis; format: ADME, Microsome; conditions: 0.5 h

Chain of Cyclin-dependent kinase 1 (P06493 whole entry): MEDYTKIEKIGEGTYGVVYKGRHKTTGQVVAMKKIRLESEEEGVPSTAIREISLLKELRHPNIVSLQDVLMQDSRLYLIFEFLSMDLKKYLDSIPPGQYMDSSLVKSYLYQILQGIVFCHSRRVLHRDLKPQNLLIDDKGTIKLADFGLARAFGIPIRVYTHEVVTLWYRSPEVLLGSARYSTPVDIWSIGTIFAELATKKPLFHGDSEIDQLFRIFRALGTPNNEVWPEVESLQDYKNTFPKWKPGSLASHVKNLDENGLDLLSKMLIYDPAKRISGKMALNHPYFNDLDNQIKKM

IC50 [1]: 7600 nM
Ratio IC50 (Homo sapiens [2]): 5
Ratio IC50 (Homo sapiens [3]): 7
IC50 [4]: 4 nM
Ratio IC50 (Homo sapiens [6]): 250
IC50 [7]: 1200 nM
IC50 [8]: 4.9 nM
predicted hepatic clearance at 1 µM [9]: 13.3 mL/min/kg
SMILES: NS(=O)(=O)c1ccc(Nc2ncc3c(n2)N(C2CCCC2)C(=O)C32CC2)cc1
Ratio IC50 (Homo sapiens [5]): 245

Drug metabolism [10]: 8%
Stability [11]: 0.1%
Ratio IC50 (Homo sapiens [12]): 2800
IC50 [1]: 350 nM
Stability [13]: 0.1%
Ratio IC50 (Homo sapiens [14]): 490
Drug metabolism [15]: 26%
Ratio IC50 (Homo sapiens [2]): 230
Ratio IC50 (Homo sapiens [3]): 88
Stability [16]: 68%
Drug metabolism [17]: 98%
Ratio IC50 (Homo sapiens [18]): 240
IC50 [4]: 1.2 nM
Drug metabolism [19]: 74%
Ratio IC50 (Homo sapiens [6]): 520
Drug metabolism [20]: 6%
Ratio IC50 (Homo sapiens [21]): 95
Drug metabolism [22]: 35%
predicted hepatic clearance at 1 µM [9]: 13.3 mL/min/kg
SMILES: CNS(=O)(=O)c1ccc(Nc2ncc3c(n2)N([C@@H]2CCC[C@@]2(C)O)C(=O)C32CC2)cc1 (relative stereo)
